According to ChEMBL document CHEMBL4507299, “Data for DCP probe PF-04554878” (2021):

Columns and labels:
[1] = system: Tyrosine-protein kinase ABL1 (Homo sapiens), P00519 [H396P]
[2] = system: ALK tyrosine kinase receptor (Homo sapiens), Q9UM73 [L1196M]
[3] = biological target: Calcium/calmodulin-dependent protein kinase type 1 (Homo sapiens) (UniProt Q14012)
[4] = biological target: Peripheral plasma membrane protein CASK (Homo sapiens) (UniProt O14936)
[5] = biological target: Cyclin-dependent kinase 5 (Homo sapiens) (UniProt Q00535)
[6] = biological target: Macrophage colony-stimulating factor 1 receptor (Homo sapiens) (UniProt P07333)
[7] = biological target: Casein kinase I isoform gamma-2 (Homo sapiens) (UniProt P78368)
[8] = biological target: Death-associated protein kinase 1 (Homo sapiens) (UniProt P53355)
[9] = biological target: Serine/threonine-protein kinase 17B (Homo sapiens) (UniProt O94768)
[10] = biological target: Dual specificity tyrosine-phosphorylation-regulated kinase 1A (Homo sapiens) (UniProt Q13627)
[11] = system: Epidermal growth factor receptor (Homo sapiens), P00533 [T790M]
[12] = biological target: Eukaryotic translation initiation factor 2-alpha kinase 1 (Homo sapiens) (UniProt Q9BQI3)
[13] = biological target: Ephrin type-B receptor 6 (Homo sapiens) (UniProt O15197)
[14] = biological target: Mitogen-activated protein kinase 15 (Homo sapiens) (UniProt Q8TD08)
[15] = biological target: Fibroblast growth factor receptor 3 (Homo sapiens) (UniProt P22607)
[16] = system: Receptor-type tyrosine-protein kinase FLT3 (Homo sapiens), P36888 [UNDEFINED MUTATION]
[17] = biological target: Glycogen synthase kinase-3 alpha (Homo sapiens) (UniProt P49840)
[18] = biological target: Homeodomain-interacting protein kinase 3 (Homo sapiens) (UniProt Q9H422)
[19] = biological target: Serine/threonine-protein kinase MARK2 (Homo sapiens) (UniProt Q7KZI7)
[20] = biological target: Dual specificity mitogen-activated protein kinase kinase 6 (Homo sapiens) (UniProt P52564)
[21] = biological target: MAP kinase-interacting serine/threonine-protein kinase 2 (Homo sapiens) (UniProt Q9HBH9)
[22] = biological target: Mitogen-activated protein kinase 13 (Homo sapiens) (UniProt O15264)
[23] = biological target: Serine/threonine-protein kinase PAK 2 (Homo sapiens) (UniProt Q13177)
[24] = biological target: Serine/threonine-protein kinase PAK 4 (Homo sapiens) (UniProt O96013)
[25] = biological target: Serine/threonine-protein kinase PAK 6 (Homo sapiens) (UniProt Q9NQU5)
[26] = biological target: Cyclin-dependent kinase 17 (Homo sapiens) (UniProt Q00537)
[27] = biological target: cAMP-dependent protein kinase catalytic subunit beta (Homo sapiens) (UniProt P22694)
[28] = biological target: Serine/threonine-protein kinase D1 (Homo sapiens) (UniProt Q15139)
[29] = biological target: Serine/threonine-protein kinase RIO2 (Homo sapiens) (UniProt Q9BVS4)
[30] = biological target: Receptor-interacting serine/threonine-protein kinase 2 (Homo sapiens) (UniProt O43353)
[31] = biological target: Ribosomal protein S6 kinase alpha-1 (Homo sapiens) (UniProt Q15418)
[32] = biological target: Ribosomal protein S6 kinase beta-1 (Homo sapiens) (UniProt P23443)
[33] = biological target: T1, Serine/threonine-protein kinase Sgk1 (Homo sapiens) (UniProt O00141)
T1 sequence (whole entry): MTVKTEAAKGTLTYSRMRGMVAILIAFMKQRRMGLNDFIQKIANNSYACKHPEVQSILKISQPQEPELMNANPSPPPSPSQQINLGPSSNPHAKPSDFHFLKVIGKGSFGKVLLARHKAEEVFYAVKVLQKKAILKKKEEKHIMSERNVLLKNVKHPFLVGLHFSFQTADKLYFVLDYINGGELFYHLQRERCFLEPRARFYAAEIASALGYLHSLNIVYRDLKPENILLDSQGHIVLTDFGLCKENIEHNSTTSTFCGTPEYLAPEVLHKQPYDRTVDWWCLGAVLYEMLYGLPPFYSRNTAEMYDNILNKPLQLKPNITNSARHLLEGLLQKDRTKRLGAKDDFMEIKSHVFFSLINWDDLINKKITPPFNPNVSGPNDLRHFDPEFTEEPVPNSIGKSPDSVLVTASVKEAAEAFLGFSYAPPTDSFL

[34] = biological target: Serine/threonine-protein kinase 16 (Homo sapiens) (UniProt O75716)
[35] = biological target: Serine/threonine-protein kinase TAO1 (Homo sapiens) (UniProt Q7L7X3)
[36] = biological target: Tyrosine-protein kinase receptor Tie-1 (Homo sapiens) (UniProt P35590)
[37] = biological target: Dual specificity protein kinase TTK (Homo sapiens) (UniProt P33981)
[38] = biological target: Tyrosine-protein kinase TXK (Homo sapiens) (UniProt P42681)
[39] = biological target: Serine/threonine-protein kinase ULK2 (Homo sapiens) (UniProt Q8IYT8)
[40] = Compound concentration 100.0 nM
[41] = Compound concentration 1000.0 nM

Dual specificity mitogen-activated protein kinase kinase 6 (Homo sapiens), sequence (P52564 whole entry): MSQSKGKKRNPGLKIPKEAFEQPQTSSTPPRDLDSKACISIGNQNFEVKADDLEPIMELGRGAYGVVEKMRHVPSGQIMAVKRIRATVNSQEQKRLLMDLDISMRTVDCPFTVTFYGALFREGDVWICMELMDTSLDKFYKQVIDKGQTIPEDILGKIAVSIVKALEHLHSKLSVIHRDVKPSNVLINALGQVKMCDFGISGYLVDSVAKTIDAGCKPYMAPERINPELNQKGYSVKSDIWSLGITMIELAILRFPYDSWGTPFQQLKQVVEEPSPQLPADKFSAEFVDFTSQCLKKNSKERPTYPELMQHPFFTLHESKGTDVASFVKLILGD
Macrophage colony-stimulating factor 1 receptor (Homo sapiens), sequence (P07333 whole entry, canonical isoform): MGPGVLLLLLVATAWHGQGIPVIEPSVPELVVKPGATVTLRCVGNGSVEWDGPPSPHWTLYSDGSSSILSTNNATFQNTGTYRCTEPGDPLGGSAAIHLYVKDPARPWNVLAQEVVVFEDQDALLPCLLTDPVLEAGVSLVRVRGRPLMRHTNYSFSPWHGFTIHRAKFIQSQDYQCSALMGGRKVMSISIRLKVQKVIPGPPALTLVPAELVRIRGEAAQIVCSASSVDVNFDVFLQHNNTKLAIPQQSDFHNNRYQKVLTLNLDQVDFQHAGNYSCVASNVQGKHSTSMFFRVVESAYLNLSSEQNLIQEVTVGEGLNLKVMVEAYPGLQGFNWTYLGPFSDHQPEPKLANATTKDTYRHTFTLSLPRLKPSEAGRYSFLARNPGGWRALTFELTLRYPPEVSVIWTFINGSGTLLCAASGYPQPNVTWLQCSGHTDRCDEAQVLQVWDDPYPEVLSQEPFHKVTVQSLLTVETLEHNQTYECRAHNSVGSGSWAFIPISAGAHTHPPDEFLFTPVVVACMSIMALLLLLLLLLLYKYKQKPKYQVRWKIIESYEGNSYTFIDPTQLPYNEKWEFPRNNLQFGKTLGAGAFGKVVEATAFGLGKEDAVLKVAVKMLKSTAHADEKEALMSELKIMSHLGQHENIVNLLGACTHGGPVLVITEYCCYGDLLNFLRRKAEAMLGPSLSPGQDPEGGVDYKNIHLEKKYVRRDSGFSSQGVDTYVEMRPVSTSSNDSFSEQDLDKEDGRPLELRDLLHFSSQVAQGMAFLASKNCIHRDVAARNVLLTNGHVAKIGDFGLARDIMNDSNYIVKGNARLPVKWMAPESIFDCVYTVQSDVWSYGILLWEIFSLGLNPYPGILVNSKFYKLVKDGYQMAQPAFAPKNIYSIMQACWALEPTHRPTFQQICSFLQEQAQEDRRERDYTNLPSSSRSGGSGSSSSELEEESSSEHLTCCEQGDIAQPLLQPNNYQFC
Fibroblast growth factor receptor 3 (Homo sapiens), sequence (P22607 23-806 limits assumed): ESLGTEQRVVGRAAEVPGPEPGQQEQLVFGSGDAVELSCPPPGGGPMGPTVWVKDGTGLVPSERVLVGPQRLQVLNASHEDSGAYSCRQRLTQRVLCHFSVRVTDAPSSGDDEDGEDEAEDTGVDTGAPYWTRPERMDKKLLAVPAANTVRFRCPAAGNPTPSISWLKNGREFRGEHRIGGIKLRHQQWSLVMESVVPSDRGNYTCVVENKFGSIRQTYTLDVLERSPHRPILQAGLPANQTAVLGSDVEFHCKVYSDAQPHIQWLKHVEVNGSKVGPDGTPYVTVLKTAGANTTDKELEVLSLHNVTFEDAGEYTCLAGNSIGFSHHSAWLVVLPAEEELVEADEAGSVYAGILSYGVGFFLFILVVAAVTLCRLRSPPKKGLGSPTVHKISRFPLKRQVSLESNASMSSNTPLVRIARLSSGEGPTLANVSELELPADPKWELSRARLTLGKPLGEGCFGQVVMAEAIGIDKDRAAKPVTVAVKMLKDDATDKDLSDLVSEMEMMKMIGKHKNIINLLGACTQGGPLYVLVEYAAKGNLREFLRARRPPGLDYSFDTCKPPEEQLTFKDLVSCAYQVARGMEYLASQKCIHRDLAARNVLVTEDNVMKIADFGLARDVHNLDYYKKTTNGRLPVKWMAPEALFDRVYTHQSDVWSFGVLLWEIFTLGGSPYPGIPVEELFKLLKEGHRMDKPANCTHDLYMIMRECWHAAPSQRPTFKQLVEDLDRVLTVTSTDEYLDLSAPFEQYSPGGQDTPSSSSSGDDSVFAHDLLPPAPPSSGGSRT
Serine/threonine-protein kinase PAK 6 (Homo sapiens), sequence (Q9NQU5 whole entry, looked up): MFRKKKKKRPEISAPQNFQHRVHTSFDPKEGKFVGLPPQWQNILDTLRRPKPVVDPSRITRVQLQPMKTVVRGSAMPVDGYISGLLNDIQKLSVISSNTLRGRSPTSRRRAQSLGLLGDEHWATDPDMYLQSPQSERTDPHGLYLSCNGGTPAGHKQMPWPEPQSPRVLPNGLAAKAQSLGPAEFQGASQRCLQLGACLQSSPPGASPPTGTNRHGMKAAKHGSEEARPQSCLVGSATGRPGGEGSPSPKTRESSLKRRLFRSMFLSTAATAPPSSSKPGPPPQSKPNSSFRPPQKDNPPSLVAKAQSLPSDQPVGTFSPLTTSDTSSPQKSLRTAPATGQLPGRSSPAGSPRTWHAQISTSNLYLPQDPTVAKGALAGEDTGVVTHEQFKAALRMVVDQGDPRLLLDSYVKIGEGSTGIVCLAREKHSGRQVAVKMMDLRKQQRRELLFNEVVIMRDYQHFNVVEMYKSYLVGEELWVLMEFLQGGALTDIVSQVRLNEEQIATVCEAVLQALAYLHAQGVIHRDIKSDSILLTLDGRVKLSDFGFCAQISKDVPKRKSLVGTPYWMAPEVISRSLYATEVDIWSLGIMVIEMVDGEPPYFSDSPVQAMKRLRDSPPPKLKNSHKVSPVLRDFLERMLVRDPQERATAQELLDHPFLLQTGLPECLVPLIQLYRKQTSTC
Mitogen-activated protein kinase 13 (Homo sapiens), sequence (O15264 whole entry): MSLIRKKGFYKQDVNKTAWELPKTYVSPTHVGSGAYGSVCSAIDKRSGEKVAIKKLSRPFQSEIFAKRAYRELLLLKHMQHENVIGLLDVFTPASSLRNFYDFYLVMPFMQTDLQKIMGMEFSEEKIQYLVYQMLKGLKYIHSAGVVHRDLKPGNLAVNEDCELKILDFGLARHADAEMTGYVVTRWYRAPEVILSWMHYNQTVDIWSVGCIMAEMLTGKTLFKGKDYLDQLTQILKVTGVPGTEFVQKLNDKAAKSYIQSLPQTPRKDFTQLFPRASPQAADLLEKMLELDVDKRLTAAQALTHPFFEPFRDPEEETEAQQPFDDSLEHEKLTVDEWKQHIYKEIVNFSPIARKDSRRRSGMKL
Serine/threonine-protein kinase PAK 2 (Homo sapiens), sequence (Q13177 whole entry): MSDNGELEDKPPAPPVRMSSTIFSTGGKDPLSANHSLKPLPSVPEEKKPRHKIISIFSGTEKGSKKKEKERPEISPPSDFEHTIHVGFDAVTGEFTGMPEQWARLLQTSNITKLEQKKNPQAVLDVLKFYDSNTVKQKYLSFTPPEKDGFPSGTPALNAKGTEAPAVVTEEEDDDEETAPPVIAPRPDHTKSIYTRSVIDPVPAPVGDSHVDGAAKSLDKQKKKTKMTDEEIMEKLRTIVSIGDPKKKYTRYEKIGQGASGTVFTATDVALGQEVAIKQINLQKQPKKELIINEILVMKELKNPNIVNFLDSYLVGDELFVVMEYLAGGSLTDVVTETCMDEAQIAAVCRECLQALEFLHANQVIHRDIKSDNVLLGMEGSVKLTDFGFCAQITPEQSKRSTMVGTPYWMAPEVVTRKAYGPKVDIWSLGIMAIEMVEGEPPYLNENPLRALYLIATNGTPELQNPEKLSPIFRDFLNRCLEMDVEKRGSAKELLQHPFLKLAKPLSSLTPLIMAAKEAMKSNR
Serine/threonine-protein kinase MARK2 (Homo sapiens), sequence (Q7KZI7 whole entry): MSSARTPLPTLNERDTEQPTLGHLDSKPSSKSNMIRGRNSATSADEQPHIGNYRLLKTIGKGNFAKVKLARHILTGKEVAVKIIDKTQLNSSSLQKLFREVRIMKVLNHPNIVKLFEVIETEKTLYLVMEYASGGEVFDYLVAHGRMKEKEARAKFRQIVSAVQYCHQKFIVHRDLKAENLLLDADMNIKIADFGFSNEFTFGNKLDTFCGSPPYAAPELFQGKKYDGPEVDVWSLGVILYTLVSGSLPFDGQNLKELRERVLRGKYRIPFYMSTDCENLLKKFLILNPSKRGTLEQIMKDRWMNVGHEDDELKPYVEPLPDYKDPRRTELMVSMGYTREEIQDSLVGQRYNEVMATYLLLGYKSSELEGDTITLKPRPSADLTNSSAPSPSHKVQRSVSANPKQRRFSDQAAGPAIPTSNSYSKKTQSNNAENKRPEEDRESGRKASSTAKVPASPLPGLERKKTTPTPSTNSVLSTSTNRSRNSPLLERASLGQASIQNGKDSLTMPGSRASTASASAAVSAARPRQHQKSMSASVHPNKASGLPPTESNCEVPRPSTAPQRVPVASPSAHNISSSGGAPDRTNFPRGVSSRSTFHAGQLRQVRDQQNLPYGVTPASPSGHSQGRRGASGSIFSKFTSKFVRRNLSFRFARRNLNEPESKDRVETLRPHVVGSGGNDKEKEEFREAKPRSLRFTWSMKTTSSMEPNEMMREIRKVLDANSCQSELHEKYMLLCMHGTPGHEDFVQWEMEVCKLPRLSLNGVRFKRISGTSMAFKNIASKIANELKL
Ribosomal protein S6 kinase beta-1 (Homo sapiens), sequence (P23443 whole entry, looked up): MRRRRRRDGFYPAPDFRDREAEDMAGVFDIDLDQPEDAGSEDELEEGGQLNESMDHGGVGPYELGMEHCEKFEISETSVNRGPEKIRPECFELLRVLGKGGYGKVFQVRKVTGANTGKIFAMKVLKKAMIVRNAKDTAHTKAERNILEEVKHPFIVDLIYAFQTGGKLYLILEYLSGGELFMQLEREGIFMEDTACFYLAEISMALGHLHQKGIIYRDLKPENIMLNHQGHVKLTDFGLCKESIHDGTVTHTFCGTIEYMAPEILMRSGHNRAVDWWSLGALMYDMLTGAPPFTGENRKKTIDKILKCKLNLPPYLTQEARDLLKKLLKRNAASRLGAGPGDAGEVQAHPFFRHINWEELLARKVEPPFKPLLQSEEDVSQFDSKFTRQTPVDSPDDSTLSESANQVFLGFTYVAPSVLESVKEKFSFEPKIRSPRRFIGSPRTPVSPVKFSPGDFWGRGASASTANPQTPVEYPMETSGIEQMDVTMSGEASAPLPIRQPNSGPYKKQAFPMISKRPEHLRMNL

CNC(=O)c1ccc(Nc2ncc(C(F)(F)F)c(NCc3nccnc3N(C)S(C)(=O)=O)n2)cc1 [DEFACTINIB]
residual activity [1, 40]: 68%
residual activity [2, 40]: 85%
residual activity [3, 40]: 100%
residual activity [4, 40]: 88%
residual activity [5, 40]: 81%
residual activity [6, 40]: 100%
residual activity [7, 40]: 99%
residual activity [8, 40]: 82%
residual activity [9, 40]: 100%
residual activity [10, 40]: 71%
residual activity [11, 40]: 99%
residual activity [12, 40]: 85%
residual activity [13, 40]: 100%
residual activity [14, 40]: 40%
residual activity [15, 40]: 78%
residual activity [16, 40]: 26%
residual activity [17, 40]: 83%
residual activity [18, 40]: 47%
residual activity [19, 40]: 66%
residual activity [20, 40]: 77%
residual activity [21, 40]: 100%
residual activity [22, 40]: 91%
residual activity [23, 40]: 72%
residual activity [24, 40]: 58%
residual activity [25, 40]: 100%
residual activity [26, 40]: 88%
residual activity [27, 40]: 93%
residual activity [28, 40]: 100%
residual activity [29, 40]: 85%
residual activity [30, 40]: 100%
residual activity [31, 40]: 71%
residual activity [32, 40]: 96%
residual activity [33, 40]: 56%
residual activity [34, 40]: 7.7%
residual activity [35, 40]: 50%
residual activity [36, 40]: 47%
residual activity [37, 40]: 8.3%
residual activity [38, 40]: 98%
residual activity [39, 40]: 75%

CN(c1ccnc(CNc2nc(Nc3ccc4c(c3)CC(=O)N4)ncc2C(F)(F)F)n1)S(C)(=O)=O [PF-00911705]
residual activity [1, 41]: 26%
residual activity [2, 41]: 65%
residual activity [3, 41]: 72%
residual activity [4, 41]: 85%
residual activity [5, 41]: 79%
residual activity [6, 41]: 100%
residual activity [7, 41]: 100%
residual activity [8, 41]: 15%
residual activity [9, 41]: 48%
residual activity [10, 41]: 19%
residual activity [11, 41]: 100%
residual activity [12, 41]: 87%
residual activity [13, 41]: 54%
residual activity [14, 41]: 4.8%
residual activity [15, 41]: 71%
residual activity [16, 41]: 5.5%
residual activity [17, 41]: 64%
residual activity [18, 41]: 48%
residual activity [19, 41]: 47%
residual activity [20, 41]: 83%
residual activity [21, 41]: 91%
residual activity [22, 41]: 100%
residual activity [23, 41]: 83%
residual activity [24, 41]: 52%
residual activity [25, 41]: 71%
residual activity [26, 41]: 85%
residual activity [27, 41]: 88%
residual activity [28, 41]: 100%
residual activity [29, 41]: 81%
residual activity [30, 41]: 82%
residual activity [31, 41]: 68%
residual activity [32, 41]: 50%
residual activity [33, 41]: 66%
residual activity [34, 41]: 1.5%
residual activity [35, 41]: 3.7%
residual activity [36, 41]: 17%
residual activity [37, 41]: 13%
residual activity [38, 41]: 91%
residual activity [39, 41]: 5.4%
